For 14 molecules, IC50 results are on record in US12612410B2 (CHILDREN'S HOSPITAL MEDICAL CENTER, priority 2020, dated 2026).

The target in one experiment is T1, IRAK1 (Homo sapiens, UniProt P51617).
T1 construct: purchased Reaction Biology (RBC), HotSpot kinase assay
In words: RBC HotSpot Kinase Assay, IRAK1. The class given is biochemical. The settings on record: isolated kinase, 33P-ATP. In outline: (§1)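 Isolated recombinant kinase (possibly truncated or catalytic-domain form) was preincubated with compound for 20 min at room temp in 20 mM Hepes pH 7.5, 10 mM MgCl2, 1 mM EGTA, 0.01% Brij35, 1% DMSO with substrate; 33P-ATP started a 2 h room-temperature reaction, read by P81 filter binding.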

In the next experiment the test system is MOLM14 D835Y cells. Put plainly: MOLM14 D835Y cell viability assay (Cell Titer Glo). The class given is cell-based. The settings on record: Homo sapiens, MOLM-14, 48 h. As for the experimental part: (§2) Both cell lines have activated FLT3 receptors, each of which carry additional resistance mutations in the kinase domain (D835Y and F691L, respectively).
(§3) MOLM14 D835Y and MOLM14 F691L cells were grown in RPMI-1640 media supplemented with 20% fetal bovine serum (FBS). For viability/cytotoxicity assessments, cells were seeded into 1536-well white polystyrene tissue culture-treated Greiner plates using a Multidrop Combi dispenser (ThermoFisher), in final volume 5 μL of growth media per well, at a density of 1000 cells per well. After cell addition, 23 nL of test compound were transferred into individual wells (22 doses tested for each test compound, with a 1:2 dilution series starting at 10 μM) via a 1536 pin-tool. Bortezomib (final concentration 2.3 μM) was used as a positive control for cell cytotoxicity. Plates were incubated for 48 hours at standard incubator conditions covered by a stainless steel gasketed lid to prevent evaporation. 48 hours post compound addition, 3 μL of Cell Titer Glo (Promega) were added to each well and plates were incubated at room temperature for 15 minutes with the stainless-steel lid in place. Luminescence readings were taken using a Viewlux imager (PerkinElmer) with a 2 second exposure time per plate.
On the technique in general: In ATP-based viability assays light output follows the ATP content of the culture.

A further experiment has as its system MOLM14 F691L cells. In words: MOLM14 F691L cell viability assay (Cell Titer Glo). The settings on record: Homo sapiens, MOLM-14, 48 h. The format is cell-based. The procedure:
as §2, §3

The target in another experiment is T2, IRAK4 (Homo sapiens, UniProt Q9NWZ3).
T2 sequence (Q9NWZ3 1-460): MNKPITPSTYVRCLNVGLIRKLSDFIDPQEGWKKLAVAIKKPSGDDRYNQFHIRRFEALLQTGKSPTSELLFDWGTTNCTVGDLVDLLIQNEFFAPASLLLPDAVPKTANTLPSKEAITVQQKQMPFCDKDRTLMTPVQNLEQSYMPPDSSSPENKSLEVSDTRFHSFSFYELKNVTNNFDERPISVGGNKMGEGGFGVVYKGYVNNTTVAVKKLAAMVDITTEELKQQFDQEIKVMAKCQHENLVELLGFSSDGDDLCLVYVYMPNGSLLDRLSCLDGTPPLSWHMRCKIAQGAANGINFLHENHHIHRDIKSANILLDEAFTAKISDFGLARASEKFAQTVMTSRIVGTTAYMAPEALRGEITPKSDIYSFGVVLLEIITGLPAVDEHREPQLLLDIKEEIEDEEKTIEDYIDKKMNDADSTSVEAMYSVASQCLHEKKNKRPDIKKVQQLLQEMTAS
In words: RBC HotSpot Kinase Assay, IRAK4. Details: purchased Reaction Biology (RBC), HotSpot kinase assay. The class given is biochemical. The settings on record: isolated kinase, 33P-ATP. In outline: as §1

The target in the next experiment is T3, FLT3 (Homo sapiens, UniProt P36888).
T3 sequence (P36888 27-993): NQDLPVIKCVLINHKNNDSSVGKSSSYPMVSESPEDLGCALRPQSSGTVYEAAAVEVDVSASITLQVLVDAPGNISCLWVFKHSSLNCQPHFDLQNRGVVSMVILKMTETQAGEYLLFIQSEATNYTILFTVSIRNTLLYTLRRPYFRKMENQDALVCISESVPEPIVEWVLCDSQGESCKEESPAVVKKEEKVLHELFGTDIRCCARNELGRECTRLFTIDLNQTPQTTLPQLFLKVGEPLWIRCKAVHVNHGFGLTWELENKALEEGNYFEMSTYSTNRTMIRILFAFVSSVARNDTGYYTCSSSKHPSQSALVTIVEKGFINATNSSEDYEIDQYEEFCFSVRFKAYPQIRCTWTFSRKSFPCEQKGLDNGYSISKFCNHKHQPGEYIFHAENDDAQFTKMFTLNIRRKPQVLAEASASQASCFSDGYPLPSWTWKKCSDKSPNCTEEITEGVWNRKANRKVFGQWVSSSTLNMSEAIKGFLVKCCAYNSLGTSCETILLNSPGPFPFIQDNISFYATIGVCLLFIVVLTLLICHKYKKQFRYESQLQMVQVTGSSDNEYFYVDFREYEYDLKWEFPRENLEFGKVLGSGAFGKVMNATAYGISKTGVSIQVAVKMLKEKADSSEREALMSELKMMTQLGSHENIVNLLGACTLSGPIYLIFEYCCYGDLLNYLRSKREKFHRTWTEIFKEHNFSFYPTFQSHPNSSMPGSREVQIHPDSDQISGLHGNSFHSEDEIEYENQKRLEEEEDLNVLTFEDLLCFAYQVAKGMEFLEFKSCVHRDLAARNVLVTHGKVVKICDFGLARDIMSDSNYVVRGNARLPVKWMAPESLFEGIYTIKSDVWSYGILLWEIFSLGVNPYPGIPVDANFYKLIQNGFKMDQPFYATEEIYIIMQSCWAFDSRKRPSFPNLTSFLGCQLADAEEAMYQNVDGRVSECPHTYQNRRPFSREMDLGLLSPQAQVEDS
In words: RBC HotSpot Kinase Assay, FLT3. Details: purchased Reaction Biology (RBC), HotSpot kinase assay. The settings on record: isolated kinase, 33P-ATP. The format is biochemical. In outline:
as §1

T1 sequence (P51617 whole entry): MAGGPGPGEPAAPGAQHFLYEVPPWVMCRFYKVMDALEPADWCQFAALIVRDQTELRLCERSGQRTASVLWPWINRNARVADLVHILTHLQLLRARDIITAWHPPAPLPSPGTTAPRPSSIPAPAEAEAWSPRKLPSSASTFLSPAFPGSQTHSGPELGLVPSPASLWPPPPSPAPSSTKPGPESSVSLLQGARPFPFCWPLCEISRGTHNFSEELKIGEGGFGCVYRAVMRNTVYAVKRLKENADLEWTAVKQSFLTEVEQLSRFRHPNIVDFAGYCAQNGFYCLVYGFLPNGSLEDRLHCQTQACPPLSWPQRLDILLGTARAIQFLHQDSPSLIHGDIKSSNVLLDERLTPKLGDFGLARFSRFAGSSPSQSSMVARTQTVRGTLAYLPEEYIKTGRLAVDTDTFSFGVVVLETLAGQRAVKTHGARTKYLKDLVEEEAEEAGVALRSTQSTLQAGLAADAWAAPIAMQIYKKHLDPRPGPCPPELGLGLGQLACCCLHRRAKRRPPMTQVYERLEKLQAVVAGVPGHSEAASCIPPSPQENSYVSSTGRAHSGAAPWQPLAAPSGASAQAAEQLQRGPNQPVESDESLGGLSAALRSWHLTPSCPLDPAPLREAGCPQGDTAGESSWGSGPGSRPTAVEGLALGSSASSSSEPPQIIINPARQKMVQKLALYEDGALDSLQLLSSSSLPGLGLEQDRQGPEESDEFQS

As a reminder, the IC50 is the point on the concentration scale where inhibition reaches its midpoint. Higher therefore signals lower potency. As to `FC(F)(F)C1(c2cn3c(-c4cccc(N[C@H]5CNCC56CC6)n4)cnc3cn2)CC1` [Compound 12, (R)-N-(6-(6-(1-(trifluoromethyl)cyclopropyl)imidazo[1,2-a]pyrazin-3-yl)pyridin-2-yl)-5-azaspiro[2.4]heptan-7-amine], the IC50 was 165 nM on IRAK1; 7 nM in the experiment on MOLM14 D835Y cells; 72 nM in the experiment with MOLM14 F691L cells; 3 nM against IRAK4; less than 0.5 nM against FLT3.

Take `F[C@H]1CCNC[C@@H]1Nc1cccc(-c2cnc3cnc(C4(C(F)(F)F)CC4)cn23)n1` [Compound 13, N-((3S,4S)-4-fluoropiperidin-3-yl)-6-(6-(1-(trifluoromethyl)cyclopropyl)imidazo[1,2-a]pyrazin-3-yl)pyridin-2-amine]: the IC50 against IRAK1 was 77 nM; with MOLM14 D835Y cells, 21 nM; in the experiment on MOLM14 F691L cells, 159 nM; against IRAK4, 5 nM; at FLT3, less than 0.5 nM.

As to `FC(F)c1cn2c(-c3cccc(N[C@@H]4CCCNC4)n3)cnc2cn1` [Compound 17, (R)-6-(6-(difluoromethyl)imidazo[1,2-a]pyrazin-3-yl)-N-(piperidin-3-yl)pyridin-2-amine], the IC50 against IRAK1 was 288 nM; with MOLM14 D835Y cells, 10 nM; with MOLM14 F691L cells it was 88 nM; against IRAK4, 5 nM; against FLT3, less than 0.5 nM.

`FC(F)c1cn2c(-c3cccc(N[C@H]4CNC[C@@H]4C(F)(F)F)n3)cnc2cn1` [Compound 19, 6-(6-(difluoromethyl)imidazo[1,2-a]pyrazin-3-yl)-N-((3R,4S)-4-(trifluoromethyl)pyrrolidin-3-yl)pyridin-2-amine]: the IC50 on IRAK1 is 32 nM; in the experiment on MOLM14 D835Y cells it was 2 nM; in the experiment with MOLM14 F691L cells it was 19 nM; against IRAK4, less than 0.5 nM; at FLT3 it was less than 0.5 nM.

For `CC(C)(O)c1cn2c(-c3cccc(N[C@H]4CNC[C@@H]4F)n3)cnc2cn1` [Compound 28, 2-(3-(6-(((3S,4S)-4-fluoropyrrolidin-3-yl)amino)pyridin-2-yl)imidazo[1,2-a]pyrazin-6-yl)propan-2-ol], the IC50 is 220 nM on IRAK1; 94 nM in the experiment on MOLM14 D835Y cells; 502 nM with MOLM14 F691L cells; 0.7 nM on IRAK4; less than 0.5 nM on FLT3.

Regarding `FC(F)(F)COc1cn2c(-c3cccc(N[C@H]4CNCC45CC5)n3)cnc2cn1` [Compound 40, (R)-N-(6-(6-(2,2,2-trifluoroethoxy)imidazo[1,2-a]pyrazin-3-yl)pyridin-2-yl)-5-azaspiro[2.4]heptan-7-amine], the IC50 was 101 nM against IRAK1; 23 nM with MOLM14 D835Y cells; 152 nM in the experiment on MOLM14 F691L cells; 2 nM at IRAK4; less than 0.5 nM on FLT3.

For the molecule `c1cc(N[C@@H]2CCCNC2)nc(-c2cnc3cnc(C4CC4)cn23)c1` [Compound 48, (R)-6-(6-cyclopropylimidazo[1,2-a]pyrazin-3-yl)-N-(piperidin-3-yl)pyridin-2-amine], the IC50 amounted to 60 nM at IRAK1; 9 nM in the experiment on MOLM14 D835Y cells; 38 nM with MOLM14 F691L cells; 3 nM on IRAK4; 0.6 nM against FLT3.

Take `F[C@H]1CNC[C@@H]1Nc1cccc(-c2cnc3cnccn23)n1` [Compound 68, N-((3S,4S)-4-fluoropyrrolidin-3-yl)-6-(imidazo[1,2-a]pyrazin-3-yl)pyridin-2-amine]: the half-maximal inhibitory concentration (IC50) against IRAK1 is 727 nM; with MOLM14 D835Y cells, 47 nM; in the experiment with MOLM14 F691L cells, 473 nM; on IRAK4 it was 4 nM; at FLT3, less than 0.5 nM.

On to `FC(F)COc1cn2c(-c3cccc(N[C@@H]4CCCNC4)n3)cnc2cn1` [Compound 75, (R)-6-(6-(2,2-difluoroethoxy)imidazo[1,2-a]pyrazin-3-yl)-N-(piperidin-3-yl)pyridin-2-amine], for which the IC50 is 504 nM at IRAK1; 15 nM in the experiment on MOLM14 D835Y cells; 158 nM with MOLM14 F691L cells; 4 nM against IRAK4; less than 0.5 nM against FLT3.

Turning to `O=S1(=O)CCCN1c1cn2c(-c3cccc(N[C@H]4CNC[C@@H]4F)n3)cnc2cn1` [Compound 95, 2-(3-(6-(((3S,4S)-4-fluoropyrrolidin-3-yl)amino)pyridin-2-yl)imidazo[1,2-a]pyrazin-6-yl)isothiazolidine 1,1-dioxide], the IC50 on IRAK1 is 43 nM; in the experiment on MOLM14 D835Y cells it was 21 nM; with MOLM14 F691L cells it was 193 nM; against IRAK4 it was 1 nM; against FLT3 it was less than 0.5 nM.

On to `O=S1(=O)CCCCN1c1cn2c(-c3nc(N[C@@H]4CCCNC4)c(F)cc3F)cnc2cn1` [Compound 101, (R)-2-(3-(3,5-difluoro-6-(piperidin-3-ylamino)pyridin-2-yl)imidazo[1,2-a]pyrazin-6-yl)-1,2-thiazinane 1,1-dioxide], for which the IC50 against IRAK1 amounted to 175 nM; in the experiment with MOLM14 D835Y cells, 217 nM; in the experiment on MOLM14 F691L cells it was 1540 nM; on IRAK4, 24 nM; at FLT3 it was 0.9 nM.

For the molecule `O=S1(=O)CCCCN1c1cn2c(-c3nc(N[C@H]4CNC[C@@H]4F)c(F)cc3F)cnc2cn1` [Compound 102, 2-(3-(3,5-difluoro-6-(((3S,4S)-4-fluoropyrrolidin-3-yl)amino)pyridin-2-yl)imidazo[1,2-a]pyrazin-6-yl)-1,2-thiazinane 1,1-dioxide], the IC50 at IRAK1 amounted to 281 nM; in the experiment on MOLM14 D835Y cells it was 386 nM; in the experiment on MOLM14 F691L cells it was 4330 nM; against IRAK4, 6 nM; against FLT3, 2 nM.

As for `O=S1(=O)CCCCN1c1cn2c(-c3nc(N[C@H]4CNCC[C@@H]4F)c(F)cc3F)cnc2cn1` [Compound 103, 2-(3-(3,5-difluoro-6-(((3S,4S)-4-fluoropiperidin-3-yl)amino)pyridin-2-yl)imidazo[1,2-a]pyrazin-6-yl)-1,2-thiazinane 1,1-dioxide], the IC50 at IRAK1 amounted to 265 nM; in the experiment on MOLM14 D835Y cells it was 193 nM; in the experiment on MOLM14 F691L cells it was 1370 nM; on IRAK4 it was 13 nM; on FLT3, 0.9 nM.

As for `O=S1(=O)CCCN1c1cn2c(-c3nc(N[C@@H]4CCCNC4)c(F)cc3F)cnc2cn1` [Compound 104, (R)-2-(3-(3,5-difluoro-6-(piperidin-3-ylamino)pyridin-2-yl)imidazo[1,2-a]pyrazin-6-yl)isothiazolidine 1,1-dioxide], the IC50 was 9 nM on IRAK1; 11 nM with MOLM14 D835Y cells; 86 nM in the experiment on MOLM14 F691L cells; 1 nM on IRAK4; less than 0.5 nM at FLT3.
